Source: patent publication US20240002441A1, “PEPTIDES AND USES THEREOF IN MODULATION OF AMYLOID-BETA PROTEIN DEGRADING PROTEASES” (priority 2020, published 2024)

Columns and labels:
[1] = target: T1, NEP (Homo sapiens, UniProt P08473); test: QFS plate reader enzyme assay, peptide screen on NEP activity (Example 3); type: biochemical; conditions: peptide 10 ng/μL, NEP 0.05 ng/μL, 1 h at 37° C.; compared to enzyme alone
T1 construct: purchased R & D systems 1182-ZNC-010
Description: (§1) Plate reader-based enzyme assays were performed using a quenched fluorescent substrate (QFS) in a 96-well format using a SpectraMAX M4 Microplate reader (Molecular Devices). The increase in fluorescence following addition of QFS (40 μM) was taken as evidence of enzyme activity. Fluorescence was monitored over 2 h at 37° C. using κEx=320 nm and λEm=405 nm. Assays were conducted in black 96-well plates. Specific enzyme activity was expressed as a rate of substrate cleavage calculated using a standard curve of 7-methoxy-coumarin-4-acetic acid.
(§2) In all plate reader-based enzyme assays using QFS, the reaction rate (μmol of substrate cleaved/min) was calculated using linear regression analysis (GraphPad Prism software version 8.01). The reaction rates calculated were used to generate the enzyme kinetic parameters Vmax and Km through non-linear regression analysis (GraphPad Prism software, version 8.01; Michaelis-Menten equation). Where indicated, enzyme activity in the presence of peptide was expressed as a % of the enzyme alone. Data were expressed as mean±SEM and statistical significance was determined using t-tests or one-way ANOVAs followed by Tukey's post-hoc test. P<0.05 was considered as statistically significant. In all assays conducted using 96-well plates, the reaction mixtures in each well were considered an independent experiment.
(§3) SEQ ID NOS: 1, 5 and 9-15 were screened for their effects on NEP and ECE1 using a high-throughput QFS assay using the method in Example 2 and the following procedure. NEP or ECE1 (0.05 ng/μL) was incubated with each peptide (10 ng/μL) for 1 h at 37° C.

[2] = target: T2, ECE1 (Homo sapiens, UniProt P42892); test: QFS plate reader enzyme assay, peptide screen on ECE1 activity (Example 3); type: biochemical; conditions: peptide 10 ng/μL, ECE1 0.05 ng/μL, 1 h at 37° C.; compared to enzyme alone
T2 construct: purchased R & D systems 1784-ZN-010
T2 sequence (P42892 1-770): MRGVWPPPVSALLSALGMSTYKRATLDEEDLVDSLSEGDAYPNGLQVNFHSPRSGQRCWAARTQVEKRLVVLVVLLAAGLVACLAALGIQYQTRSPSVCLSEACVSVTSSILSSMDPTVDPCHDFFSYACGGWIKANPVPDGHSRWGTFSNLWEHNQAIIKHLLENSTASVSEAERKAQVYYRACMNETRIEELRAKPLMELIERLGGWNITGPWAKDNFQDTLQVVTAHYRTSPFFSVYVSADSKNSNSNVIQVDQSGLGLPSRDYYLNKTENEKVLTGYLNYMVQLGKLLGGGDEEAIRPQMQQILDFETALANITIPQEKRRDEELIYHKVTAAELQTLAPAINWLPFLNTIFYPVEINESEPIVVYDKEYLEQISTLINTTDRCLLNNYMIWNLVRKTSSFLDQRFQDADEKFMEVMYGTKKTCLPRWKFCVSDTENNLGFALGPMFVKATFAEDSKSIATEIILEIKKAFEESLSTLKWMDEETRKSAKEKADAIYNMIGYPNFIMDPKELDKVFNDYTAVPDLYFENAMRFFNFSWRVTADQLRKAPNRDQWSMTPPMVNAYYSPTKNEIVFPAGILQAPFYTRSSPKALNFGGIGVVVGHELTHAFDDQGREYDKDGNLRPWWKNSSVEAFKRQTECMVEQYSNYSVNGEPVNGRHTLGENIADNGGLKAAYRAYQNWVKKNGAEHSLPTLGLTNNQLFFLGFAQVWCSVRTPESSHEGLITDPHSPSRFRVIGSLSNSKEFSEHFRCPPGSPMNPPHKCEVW
Description: as §1, §2, §3

[3] = target: T1, NEP; conditions: Smith A I et al., (2016) Scientific reports 6:22413; cited from earlier work
[4] = target: T2, ECE1; conditions: Smith A I et al., (2016) Scientific reports 6:22413; cited from earlier work
[5] = target: T1, NEP; test: Cleavage of synthetic Aβ40 by NEP, LCMS (Example 7); type: biochemical; conditions: peptide 9 μM
Description: Synthetic Aβ40 (0.10 μg/μL) was added to a reaction mixture containing NEP (0.05 ng/μL) pre-incubated with SEQ ID NO:2 or scrambled control (9 μM) for 1 h at 37° C. Synthetic Aβ42 (0.05 μg/μL) was added to a reaction mixture containing NEP (0.15 ng/μL) preincubated with either scrambled control or SEQ ID NO:2 (9 μM) for 1 h at 37° C. Samples containing enzyme alone had only NEP buffer (Table 2). The cleavage reaction was allowed to continue in a thermomixer at 37° C. Aliquots of equal volume were taken over 24 h. Aliquots were immediately acidified with 0.1% trifluoroacetic acid (TFA) to terminate enzyme activity and snap frozen in dry ice. Samples were stored at −80° C. until analysed by LCMS.
Samples were analysed by LC-MS/MS using a quadrupole TOF mass spectrometer (MicroTOFq, Bruker Daltonics, Bremen, Germany) coupled online with a 1200 series nano-HPLC (Agilent technologies, Santa Clara, CA, USA). Samples were injected onto a zorbax 300SB reversed phase trap column with 95% solvent A (0.1% formic acid) at a flow rate of 10 μL/minute. The peptides were eluted over a 10-min gradient to 70% solvent B (80% acetonitrile, 0.1% formic acid) and separated on a 15-cm, 75-μmID zorbax 300SB nanocolumn. The eluent was nebulised and ionised using the Bruker nano-ESI source with a capillary voltage of 4500 V, dry gas at 180° C., flow rate of 5 L/minute and nebuliser gas pressure at 300 mbar. The MS acquisition was in selected ion monitoring mode after selected ion extraction of the MS spectra. Prior to analysis, the qTOF mass spectrometer was calibrated using a 1:50 dilution tuning mix (Agilent technologies, Santa Clara, CA, USA). Data from MS run were processed in Skyline version 19.1.0.193 (Uni. Of Washington, WA, USA) to perform ion chromatogram extractions and peak integrations.

[6] = system: Ang II-induced expression of IL-6 and Collagen III in EA.hy926 cells; test: Ang II-induced expression of IL-6 and Collagen III in EA.hy926 cells, western blotting (Example 9); type: cell-based
Description: EA.hy926 cells (passage 40) were seeded at a density of 1×10^6 cells/mL. After 24 hours, cells were incubated overnight in reduced serum media. Cells were then treated over 24 h as follows: • 1. Vehicle control • 2. Ang II (10 nM) • 3. […] Ang II (10 nM)+rhACE2 (0.05 ng/μL) • 5.
Following incubation, cells were lysed using lysis buffer (Thermo Fisher Scientific, Cat #89900) containing 1% protease inhibitor (Thermo Fisher Scientific, Cat #1861278). Cell lysate was centrifuged at 13,000 rpm for 10 min. Protein concentration in the supernatant was determined by NanoDrop (Thermo Fisher Scientific, Cat #ND-1000). Supernatants were stored at −30° C. until analysed.
Samples were diluted in SDS-PAGE reducing sample buffer (Bio-Rad Laboratories, Cat #1610747; California, USA) containing 1% β-mercaptoethanol (Bio-Rad Laboratories, Cat #221610710) to reach a final concentration of […]. Prior to loading, samples were heated at 95° C. for 5 min. Samples were loaded into the wells alongside the molecular weight marker (Life Technologies, Cat #LC5800; California, USA). Electrophoresis was conducted at 200 V for 40 min in 1× running buffer. Following protein separation by SDS-PAGE, proteins were blotted onto nitrocellulose membranes at 100 V for 1 h in 1× transfer buffer. The membranes were then blocked in 5% skim milk in 1× Tris-buffered saline (TBST) containing 0.05% Tween 20 (Thermo Fisher Scientific, Cat #28352) for 1 h at room temperature. The membranes were incubated with IL-6 (1:500; Thermo Fisher Scientific, Cat #700480) or collagen III (1:500; Invitrogen, Cat #PA5-27828) primary antibodies while rocking at 4° C. overnight. Membranes were then probed with secondary antibody conjugated with horseradish peroxidase (HRP) (1:6000) for 1 h at room temperature. The HRP-labelled proteins were detected using chemiluminescence SuperSignal™ ECL Western Blotting Substrate (Thermo Fisher Scientific, Cat #34577) at 1:1 ratio. Beta-actin was used as a loading control. Protein bands were analysed using ImageJ (version 1.51) and band density was normalised with the respective beta-actin.

[7] = system: HEK293 cells; test: Peptide stability study in HEK293 cells, LCMS (Example 4); type: in vitro ADME; conditions: peptide 9 μM, Opti-MEM, 60 min
Description: (§4) SEQ ID NO:2 was prepared as a C-terminal amidated analogue of SEQ ID NO:1. The stability of SEQ ID NO:1 and SEQ ID NO:2 was assessed in HEK293 and EA.hy926 cells grown in culture and their break down was monitored by LCMS over 60 min using the following procedure.
(§5) HEK293 (passage 24) or Ea.hy926 (passage 37) were seeded into tissue-culture-grade 96-well plates at a density of 20,000 cells/well. After 24 hr, cells were washed with PBS and replaced with Opti-MEM reduced serum media containing SEQ ID NO:1 or SEQ ID NO:2 (9 μM). Aliquots of equal volume were taken at T=0 and 60 min. SEQ ID NO:2 was added to control wells having media (no cells) only. Samples were immediately acidified in 0.1% TFA, snap frozen in dry ice and stored in −80° C. until analysed by LCMS.
(§6) Samples were analyzed by LC-MS/MS on a Shimadzu Nexera uHPLC (Japan) coupled to a Triple Tof 5600 mass spectrometer (ABSCIEX, Canada) equipped with a duo electrospray ion source. One μL of each extract was injected onto a 2.1 mm×100 mm Zorbax C18 1.8 um column (Agilent) at 200 μL/min. […] SEQ ID NO:1 and SEQ ID NO:2 were quantified using the […] doubly charged molecular ion from m/z 510.270 to 510.325. The data was acquired using Analyst TF 1.6 and quantification was carried out using MultiQuant 2.1.1 software (ABSCIEX, Canada).

[8] = system: EA.hy926 cells; test: Peptide stability study in EA.hy926 endothelial cells, LCMS (Example 4); type: in vitro ADME; conditions: peptide 9 μM, Opti-MEM
Description: as §4, §5, §6

[9] = Ang II 10 nM + peptide 26 μM + rhACE2 0.05 ng/μL + MLN-4760 10 μM

T1 sequence (P08473 whole entry): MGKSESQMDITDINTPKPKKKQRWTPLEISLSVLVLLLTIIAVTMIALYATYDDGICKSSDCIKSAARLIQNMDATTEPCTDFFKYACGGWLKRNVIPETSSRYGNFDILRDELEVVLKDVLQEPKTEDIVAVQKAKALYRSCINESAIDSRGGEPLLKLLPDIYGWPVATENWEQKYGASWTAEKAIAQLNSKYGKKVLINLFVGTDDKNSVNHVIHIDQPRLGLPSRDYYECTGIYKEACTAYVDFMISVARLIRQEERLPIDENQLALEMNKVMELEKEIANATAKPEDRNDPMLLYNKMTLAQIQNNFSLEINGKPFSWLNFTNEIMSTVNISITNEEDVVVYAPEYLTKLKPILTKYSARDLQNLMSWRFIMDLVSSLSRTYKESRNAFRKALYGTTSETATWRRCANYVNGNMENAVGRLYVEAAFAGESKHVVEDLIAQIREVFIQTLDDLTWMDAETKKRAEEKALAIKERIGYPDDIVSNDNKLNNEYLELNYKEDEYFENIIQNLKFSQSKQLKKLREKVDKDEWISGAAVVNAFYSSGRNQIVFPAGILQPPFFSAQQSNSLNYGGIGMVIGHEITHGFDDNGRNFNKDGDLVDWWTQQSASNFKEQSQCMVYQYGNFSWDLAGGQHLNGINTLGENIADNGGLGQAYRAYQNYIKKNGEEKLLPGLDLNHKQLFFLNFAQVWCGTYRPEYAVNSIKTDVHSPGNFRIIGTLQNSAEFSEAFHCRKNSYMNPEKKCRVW

H-SLFELGKMILQETGKNPAKS-OH [SEQ ID NO:9]
NEP activity [1]: significantly stimulate | ECE1 activity [2]: significantly stimulate | NEP activity (previous studies) [3]: directly increase the activity | ECE1 activity (previous studies) [4]: directly increase the activity

H-KILGILFMSE-OH [scrambled control, reference compound]
decrease in Aβ1-21 and increase in Aβ1-12 ([5]; Aβ40 cleavage): not observed | peak area corresponding to Aβ1-12 after 24 h ([5]; Aβ40 cleavage, 24 h): 9.7×10^6±2.1×10^6 arbitrary units | amount of Aβ40 remaining after 4 h (peak area) ([5]; NEP 0.05 ng/μL, Aβ40 0.10 μg/μL, 4 h): 6.4×10^6±1.7×10^6 arbitrary units

Ang II: Angiotensin II, potent vasoconstrictor with fibrotic and inflammatory effects; stimulus in EA.hy926 cells (DRVYIHPF; Angiotensin-2; UniProt P01019 25-32, looked up) [reference compound]
Collagen III expression ([6]; EA.hy926 cells, 24 h, Ang II 10 nM alone, or Ang II and 2A (26 μM)): 141±30% | IL-6 expression ([6]; EA.hy926 cells, Ang II 10 nM, 24 h, band density normalised with beta-actin): 152±8%

H-SLFELGKMILQETGKN-OH [SEQ ID NO:11]
NEP activity [1]: significantly stimulate | ECE1 activity [2]: significantly stimulate

H-SLFELGKMIL-OH [SEQ ID NO:1, H2N-SLFELGKMIL-OH]
NEP activity [1]: significant increase | ECE1 activity [2]: no effect | amount remaining in the medium of HEK293 cells [7]: 29%±3% | relative amount remaining in the medium of endothelial cells at 60 min [8]: 23%±2.4%

CC(C)C[C@H](N[C@@H](Cc1cncn1Cc1cc(Cl)cc(Cl)c1)C(=O)O)C(=O)O [MLN-4760, reference compound]
Collagen III expression in the presence of ACE2 inhibitor MLN-4760 [6, 9]: 75±14% | IL-6 expression in the presence of MLN-4760 [6, 9]: no difference

rhACE2: Recombinant human ACE2 (Cat #933-ZN-010) purchased from R & D systems
Collagen III expression compared to cells treated with Ang II alone ([6]; Ang II 10 nM plus 2A 26 μM and/or ACE2 0.05 ng/μL, 24 h): significantly lower | IL-6 expression compared to cells treated with Ang II alone ([6]; Ang II 10 nM plus peptide 26 μM and/or rhACE2 0.05 ng/μL, 24 h): significantly lower

H-SLFELGKMILQETG-OH [SEQ ID NO:12]
NEP activity [1]: significantly stimulate | ECE1 activity [2]: significantly stimulate

H-SLFELGKMILQE-OH [SEQ ID NO:5]
NEP activity [1]: significant increase | ECE1 activity [2]: no effect
